# Source: US20140121240A1, “NOVEL PHARMACEUTICAL COMPOSITION” (MARUHO CO., LTD., priority 2011, published 2014)
# Tested on: histamine-induced scratching behavior
# Assay: Antipruritic effect in histamine-induced scratching model (Experiment 2)
# Type: in vivo, mouse
# Protocol: [Antipruritic Effect of Test Compound in Histamine-Induced Scratching Model]
# After topical administration of a 3% w/v solution of a test compound or a reference compound as described in the following Table 6 in acetone (50 μL) or a vehicle (acetone; 50 μL) onto right dorsal neck of ICR female mice similarly pre-treated as described in Experiment 1, these animals were placed into a testing apparatus (MicroAct). After one hour of the administration of said compound solution or vehicle, a solution (50 μL) of histamine in saline (300 nmol/50 μL) or saline (50 μL) was intradermally administered to right dorsal neck of each mouse. Immediately after the administration, scratching behavior (counts of scratching) was measured for 30 minutes by MicroAct.
# Inhibition rate on scratching behavior of each test compound was evaluated in terms of the following formula based on the counts of scratching in the test group in which each test compound solution was administered followed by administration of a histamine solution in saline (counts of scratching in compound-treated group), and the counts of scratching in the test group in which a vehicle (acetone) was administered followed by administration of a histamine solution in saline (counts of scratching in vehicle-treated group).
# Ratio of inhibition rate on scratching behavior of each test compound to that of Compound A was calculated as antipruritic activity (%). For reference, PDE4 inhibitory activity of each compound (IC50) which was measured by a conventional manner is also shown in such Table.
structure (smiles),measurement,setting,value
"COc1cc2cc(CO)c(CO)c(-c3ccnc(N4CC[C@H](O)c5ccccc54)c3)c2cc1OC [Compound A, 1-[2-(4S)-4-hydroxy-1,2,3,4-tetrahydroquinolin-1-yl]-4-pyridyl]-2,3-bis(dihydroxymethyl)-6,7-dimethoxynaphthalene sesquihydrate]",Antipruritic activity (ratio of inhibition rate on scratching behavior to that of Compound A),"3% w/v in acetone 50 μL topical 1 h before histamine 300 nmol/50 μL, ICR female mice, counts for 30 minutes",100%
same,"antipruritic effect in histamine-induced scratching model, result in words","3% w/v topical, histamine 300 nmol/50 μL",remarkable antipruritic effect
